Measured values taken from patent US20250011311A1, “AMIDO HETEROAROMATIC COMPOUNDS” (AstraZeneca AB, priority 2022, published 2025).
Where two headings read alike, the source gives them in different places.

How the values were obtained:
[1] = tested on: human hepatocytes; assay: Assay A: Metabolic Stability in Human Hepatocytes; assay type: in vitro ADME; settings: cryopreserved human hepatocytes, 10^6 viable cells/mL, 1 μM compound, 37° C.
Procedure: Assay A: Metabolic Stability in Human Hepatocytes
Hepatocyte metabolic stability was determined in accordance with the method described by Jacobson et al., An optimized automated assay for determination of metabolic stability using hepatocytes: assay validation, variance component analysis, and in vivo relevance. Assay Drug Dev Technol 2007, 5 (3), 403-415. DOI: 10.1089/adt.2007.059, which is incorporated herein by reference. Cryopreserved hepatocytes at a concentration of 10^6 viable cells/mL were used. After thawing, hepatocytes were incubated for 10 min to warm to 37° C. and test compounds, dissolved in acetonitrile, were added to give a final concentration of 1 μM. At 0.5, 5, 15, 30, 45, 60, 80, 100 and 120 min, the incubation system was mixed and 20 μL aliquots were transferred at each time point to wells in a separate plate filled with 80 μL MeCN to stop the reaction. The quenching plate was then vortexed followed by centrifugation, and supernatants were analyzed by LC-MS/MS. Peak areas were determined from extracted ion chromatograms, and the in vitro intrinsic clearance (in vitro CLint, in μL/min/10^6 cells) of parent compound was calculated from the slope in the regression analysis of the natural logarithm of parent concentration vs time curve.

[2] = target: recombinant 17bHSD13 (N2-K300) (Homo sapiens (Human), UniProt Q7Z5P4); assay: In Vitro 17bHSD13 Enzyme Assay; assay type: biochemical; settings: 80 nM 17bHSD13, 0.5 mM NAD, 20 μM Estradiol, 2.5 h; estradiol to estrone by LC-MS/MS
Method in brief: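 Human 17bHSD13 (N2-K300, 80 nM) with 0.5 mM NAD, 20 μM estradiol and varied compound in 50 mM Tris-Cl pH 7.4, 5 mM EDTA, 0.01% DDM. Estrone/(estrone+estradiol) ratio read by LC-MS/MS (APCI, positive MRM). Inhibition normalised to DMSO and a known-inhibitor control; IC50 from curve fit.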

[3] = target: over expressed HSD17β13 in HEK293S cells (Homo sapiens (Human), UniProt Q7Z5P4); assay: In Vitro 17bHSD13 Cell Assay; assay type: cell-based
Method in brief: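 HEK293S cells overexpressing HSD17β13 convert estradiol to estrone; product read by LC-MS/MS (APCI, positive MRM) as AUC ratio estrone/(estrone+estradiol). Effect normalised between DMSO and maximal inhibition by a known inhibitor control; IC50 from curve fit.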

[4] = target: over expressed HSD17β9 in HEK293S cells (Homo sapiens (Human), UniProt Q92781); assay: In Vitro 17bHSD9 Cell Assay; assay type: cell-based
Method in brief: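 HEK293S cells overexpressing HSD17β9 were plated at 10K cells/well in DMEM + 10% FBS and cultured 18 h. Retinol-to-retinal conversion in media was quantified by LC-MS/MS (MRM) as retinal/(retinal + retinol). IC50 was fitted after normalisation to DMSO and full inhibition by a reference inhibitor.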

[5] = target: CYP2C9 (Homo sapiens (Human), UniProt P11712); assay: Assay B: Cytochrome P450 Inhibition 2C9
Procedure: A fluorescence-based method in 96-well format was used to determine the inhibition of 2C9 (Crespi, C. L. et al., Microtiter plate assays for inhibition of human, drug-metabolizing cytochromes P450. Anal Biochem 1997, 248 (1), 188-190. DOI: 10.1006/abio.1997.2145, which is incorporated herein by reference). The recombinant human enzymes used were prepared in house, except for CYP2D6 (CYPEX LTD, Dundee, UK). Different coumarin substrates, biotransformed into fluorescent metabolites, were used as probes for each individual CYP. A fluorescence plate reader (SPECTRAMAX GEMINIXS, MOLECULAR DEVICES, Sunnyvale, California, USA) was used to measure the levels of metabolites formed. A dilution series of the test substrates was prepared at eight different concentrations. For each CYP, a mixture of the enzyme, corresponding coumarin substrate, potassium phosphate buffer pH 7.4 and water (concentrations and volumes were CYP-dependent) were added to each well in a black 96-well plate. The test substrates at different concentrations were added. After 10 min pre-incubation, the co-factor NADPH was added to initiate the reaction. After 20-50 min (CYP and substrate-dependent) the reaction was terminated by addition of trisbase/MeCN (20:80). The plates were transferred to the fluorescence plate reader where the wavelengths were set individually for the different coumarin substrates and their respective fluorescent metabolite. The responses were exported to Excel where the IC50 curves were plotted (percent inhibition versus concentration) and IC50 values calculated for each test substrate and enzyme using XL-fit.

[6] = target: recombinant 17bHSD4 (M1-N311) (Homo sapiens (Human), UniProt P51659); assay: In Vitro 17bHSD4 Enzyme Assay; assay type: biochemical; settings: 40 nM 17bHSD4, 0.125 mM NAD, 15 μM Estradiol, 1.5 h; NADH fluorescence; read-out: 17HSD17b4 Enzyme assay IC50
[7] = target: human CB1 receptor expressed in transfected CHO cells (Homo sapiens (Human), UniProt P21554); assay: Assay C: CB1 Agonism Assay; assay type: cell-based; settings: agonist activity, cAMP HTRF, read-out: Assay C: CB1 Hu CHO cAMP TRF Ag CR GMean EC50
Procedure: Assay C: CB1 Agonism Assay
Evaluation of the agonist activity of compounds at the human CB1 receptor expressed in transfected CHO cells, determined by measuring their effects on cAMP modulation using the HTRF detection method.
Thereafter, the adenylyl cyclase activator NKH 477 is added at a final concentration of 3 μM. Following 20 min incubation at 37° C., the cells are lysed and the fluorescence acceptor (D2-labeled cAMP) and fluorescence donor (anti-cAMP antibody labeled with europium cryptate) are added. After 60 min at room temperature, the fluorescence transfer is measured at gex=337 nm and gem=620 and 665 nm using a microplate reader (RUBYSTAR, BMG). The cAMP concentration is determined by dividing the signal measured at 665 nm by that measured at 620 nm (ratio). The results are expressed as a percent of the control response to 30 nM CP 55940. The standard reference agonist is CP 55940, which is tested in each experiment at several concentrations to generate a concentration-response curve from which its EC50 value is calculated.
Bibliographic reference Felder, C. C. et al., (1995), Comparison of the pharmacology and signal transduction of the human cannabinoid CB1 and CB2 receptors, Mol. Pharmacol., 48: 443, which is incorporated herein by reference.

[8] = HEK293S cells over expressing HSD17β13, estradiol to estrone conversion, 18 h, LC-MS/MS, read-out: 17bHSD1713 Cell assay IC50

Sequence of CYP2C9 (P11712 whole entry): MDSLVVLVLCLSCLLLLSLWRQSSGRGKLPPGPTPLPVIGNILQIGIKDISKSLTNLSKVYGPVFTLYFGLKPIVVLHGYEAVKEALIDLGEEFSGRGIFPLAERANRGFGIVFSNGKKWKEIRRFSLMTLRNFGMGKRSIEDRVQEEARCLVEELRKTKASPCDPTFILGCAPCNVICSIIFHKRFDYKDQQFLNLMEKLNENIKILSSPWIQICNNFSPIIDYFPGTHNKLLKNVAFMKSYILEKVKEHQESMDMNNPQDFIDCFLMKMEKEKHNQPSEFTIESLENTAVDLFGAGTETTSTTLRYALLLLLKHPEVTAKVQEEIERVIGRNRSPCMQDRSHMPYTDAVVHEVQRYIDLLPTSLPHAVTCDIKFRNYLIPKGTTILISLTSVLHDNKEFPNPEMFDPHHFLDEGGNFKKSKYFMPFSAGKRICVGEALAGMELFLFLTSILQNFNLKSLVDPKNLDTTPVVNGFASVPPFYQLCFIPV
Sequence of recombinant 17bHSD13 (N2-K300) (Q7Z5P4 2-300): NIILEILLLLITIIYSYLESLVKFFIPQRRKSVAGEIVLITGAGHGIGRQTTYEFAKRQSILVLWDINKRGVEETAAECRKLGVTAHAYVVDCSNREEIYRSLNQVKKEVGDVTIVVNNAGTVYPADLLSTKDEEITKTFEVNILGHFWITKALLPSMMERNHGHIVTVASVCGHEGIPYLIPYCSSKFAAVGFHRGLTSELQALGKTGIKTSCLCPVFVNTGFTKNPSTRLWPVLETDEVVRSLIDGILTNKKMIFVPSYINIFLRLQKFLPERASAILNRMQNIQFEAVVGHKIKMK
Sequence of recombinant 17bHSD4 (M1-N311) (P51659 1-311): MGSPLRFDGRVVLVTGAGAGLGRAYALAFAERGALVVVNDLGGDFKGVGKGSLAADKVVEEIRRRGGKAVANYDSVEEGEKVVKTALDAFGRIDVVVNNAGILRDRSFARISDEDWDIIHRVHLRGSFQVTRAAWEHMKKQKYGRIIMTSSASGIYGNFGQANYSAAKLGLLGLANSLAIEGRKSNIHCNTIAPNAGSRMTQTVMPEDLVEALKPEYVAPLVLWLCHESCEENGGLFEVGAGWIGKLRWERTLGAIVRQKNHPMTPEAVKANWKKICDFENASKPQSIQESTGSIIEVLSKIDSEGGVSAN
Sequence of over expressed HSD17β13 in HEK293S cells (Q7Z5P4 20-300): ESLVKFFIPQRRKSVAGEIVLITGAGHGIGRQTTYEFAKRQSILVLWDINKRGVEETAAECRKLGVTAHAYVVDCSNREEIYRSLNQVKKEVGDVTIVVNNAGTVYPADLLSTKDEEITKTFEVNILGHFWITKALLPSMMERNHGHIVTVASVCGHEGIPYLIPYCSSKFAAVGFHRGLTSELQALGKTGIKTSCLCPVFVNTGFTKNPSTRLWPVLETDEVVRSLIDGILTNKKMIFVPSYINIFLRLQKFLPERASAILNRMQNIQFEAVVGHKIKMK
Sequence of over expressed HSD17β9 in HEK293S cells (Q92781 whole entry): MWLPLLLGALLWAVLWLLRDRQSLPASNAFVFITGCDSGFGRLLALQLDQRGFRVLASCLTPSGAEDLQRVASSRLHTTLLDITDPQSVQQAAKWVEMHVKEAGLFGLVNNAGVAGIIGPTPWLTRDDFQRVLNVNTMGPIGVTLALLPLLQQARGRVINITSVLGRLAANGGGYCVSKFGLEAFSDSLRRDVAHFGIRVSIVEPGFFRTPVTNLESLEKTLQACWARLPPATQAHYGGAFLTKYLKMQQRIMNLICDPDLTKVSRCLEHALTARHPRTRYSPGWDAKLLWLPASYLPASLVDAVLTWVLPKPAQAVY
Sequence of human CB1 receptor expressed in transfected CHO cells (P21554 whole entry): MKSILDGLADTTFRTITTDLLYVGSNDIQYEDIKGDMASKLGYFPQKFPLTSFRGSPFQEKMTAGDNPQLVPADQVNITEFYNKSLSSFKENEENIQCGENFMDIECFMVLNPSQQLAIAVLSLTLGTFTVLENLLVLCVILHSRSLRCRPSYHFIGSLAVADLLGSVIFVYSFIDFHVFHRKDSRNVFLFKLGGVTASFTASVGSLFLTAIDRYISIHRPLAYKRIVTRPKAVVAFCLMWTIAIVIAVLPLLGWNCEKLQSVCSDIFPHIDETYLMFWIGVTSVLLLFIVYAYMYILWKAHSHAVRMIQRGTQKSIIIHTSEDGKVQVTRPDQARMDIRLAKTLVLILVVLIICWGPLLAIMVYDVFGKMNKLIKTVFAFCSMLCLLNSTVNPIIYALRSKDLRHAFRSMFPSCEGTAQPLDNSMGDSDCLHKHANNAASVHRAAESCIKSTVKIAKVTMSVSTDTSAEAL

Row | Compound | Assay A: Human Heps Met Clint GMean CLint (μl/min/1E6) [1] [μl/min/1E6] | IC50 [2] [µM] | IC50 [3] [µM] | IC50 [4] [µM] | IC50 [5] [µM] | IC50 [6] [µM] | EC50 [7] [µM] | IC50 [3, 8] [µM]
1 | N#CC1(c2ccccc2)CCN(C(=O)c2noc(-c3cc(F)c(F)c(O)c3F)n2)CC1 [Example 80, 4-Phenyl-1-(5-(2,4,5-trifluoro-3-hydroxyphenyl)-1,2,4-oxadiazole-3-carbonyl)piperidine-4-carbonitrile] | 9.8 | 0.111 | 0.46 | 8.2 | 3.3 | 21.9 | – | –
2 | N#Cc1cccc(C2CN(C(=O)c3noc(-c4cc(F)c(F)c(O)c4F)n3)C2)c1 [Example 85, 3-(1-(5-(2,4,5-Trifluoro-3-hydroxyphenyl)-1,2,4-oxadiazole-3-carbonyl)azetidin-3-yl)benzonitrile] | 14.1 | 0.317 | – | – | 3.4 | 21.7 | 9.3 | 3.38
3 | N#Cc1c(C(=O)N2CCN(c3ccccn3)CC2)noc1-c1cc(F)c(F)c(O)c1F [Example 15, 3-(4-(Pyridin-2-yl)piperazine-1-carbonyl)-5-(2,4,5-trifluoro-3-hydroxyphenyl)isoxazole-4-carbonitrile] | 59.8 | 0.489 | – | – | 2.1 | 37.7 | – | 0.97
